Data set [1] can be described thus: Nephrotoxicity of prior-art compounds of EP 0 640 612 found by the Applicant. In kind it is in vivo. The following applies: no method given.
For data set [2] the following is noted: Journal of Cerebral Blood Flow and Metabolism, 1994, 14, 251-261; cited from earlier work.

Each structure is given as a SMILES string. Where two headings read alike, the source gives them in different places.

With `O=c1[nH]c2cc(Cl)c(Cl)cc2cc1P(=O)(O)O` [(6,7-dichloro-2-oxo-1,2-dihydro-3-quinolyl)phosphonic acid], in data set [1], the Nephrotoxicity result is on record as “serious problems of nephrotoxicity”.
As for `NS(=O)(=O)c1cccc2c3c(cc([N+](=O)[O-])c12)=NC(=O)C(=O)N=3` [NBQX, 6-nitro-7-sulphamoyl-benzo[f]quinoxaline-2,3-dione], the Nephrotoxicity entry in data set [2] is reported as “nephrotoxicity”.

Values taken from patent US6596709B1, “6-sulphanoyl-3-quinolylphosphonic acid compounds” (Les Laboratoires Servier, priority 2000, dated 2003).
